Laboratory results published in ChEMBL document CHEMBL1134806, “Parallel solid-phase synthesis of nucleoside phosphoramidate libraries” (Bioorg Med Chem Lett, 2001).

Assays:
[1] = test system: Hepatitis B virus; experiment: Inhibitory activity was determined against Hepatitis B virus (HBV) at 10 uM using HepG2-derived 2.2.15 cell lines; assay type: functional, organism-based
[2] = test system: Hepatitis B virus; experiment: Cytotoxic activity was determined against Hepatitis B virus (HBV) at 10 uM using HepG2-derived 2.2.15 cell lines; assay type: functional; settings: HepG2 2.2.15

| IC50 [1] | Compound | CC50 [2] |
| --- | --- | --- |
| 4.4 µM | COc1ccc(CCNP(=O)(O)OC[C@H]2O[C@@H](n3ccc(=O)[nH]c3=O)[C@H](OC)[C@@H]2OP(=O)(O)OC[C@H]2O[C@@H](n3cnc4c(N)ncnc43)C[C@@H]2O)cc1OC | > 300 µM |
| 2.1 µM | Nc1nc(O)c2ncn([C@H]3C[C@H](O)[C@@H](COP(=O)(O)O[C@@H]4C[C@@H](n5cnc6c(N)ncnc65)O[C@H]4COP(=O)(O)NC4CCCN4)O3)c2n1 (some centres undefined) | > 300 µM |
